Biological target: T1, human SGLT2 (Homo sapiens, UniProt P31639)
T1 sequence (P31639 1-672): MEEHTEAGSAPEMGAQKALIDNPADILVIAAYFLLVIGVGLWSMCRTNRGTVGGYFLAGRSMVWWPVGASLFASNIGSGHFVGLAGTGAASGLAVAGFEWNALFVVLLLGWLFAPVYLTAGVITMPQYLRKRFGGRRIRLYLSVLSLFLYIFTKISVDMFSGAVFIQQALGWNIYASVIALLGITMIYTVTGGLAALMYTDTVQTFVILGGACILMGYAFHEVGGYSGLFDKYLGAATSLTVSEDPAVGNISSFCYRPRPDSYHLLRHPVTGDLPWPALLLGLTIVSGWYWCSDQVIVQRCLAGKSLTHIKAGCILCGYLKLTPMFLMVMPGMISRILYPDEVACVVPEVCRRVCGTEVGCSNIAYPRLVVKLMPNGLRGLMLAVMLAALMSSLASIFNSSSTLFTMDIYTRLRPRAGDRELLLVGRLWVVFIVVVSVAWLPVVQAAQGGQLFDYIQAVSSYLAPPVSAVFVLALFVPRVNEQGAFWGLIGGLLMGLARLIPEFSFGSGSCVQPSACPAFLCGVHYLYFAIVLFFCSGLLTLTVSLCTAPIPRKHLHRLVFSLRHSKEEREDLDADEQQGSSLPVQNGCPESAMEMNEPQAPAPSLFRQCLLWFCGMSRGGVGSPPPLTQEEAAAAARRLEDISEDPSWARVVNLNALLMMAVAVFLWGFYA
Assay: Compound washout study, cells expressing human SGLT2
From the text: Cells expressing human SGLT2 were studied using the above protocol. […] Cells expressing human SGLT2 were studied using the above protocol.

## COc1ccc(Cc2cc([C@@H]3O[C@H](SC)[C@@H](O)[C@H](O)[C@H]3O)ccc2Cl)cc1 [LP-925219]
No wash protocol
  IC50: 2.2 nM
Washout protocol, 18-20 h recovery after 30 min treatment
  IC50: 6.8 nM
